Measured values reported in patent publication US20070197643A1, “USE OF (Z)-2-CYANO-3-HYDROXY-BUT-2-ENOIC ACID-(4'-TRIFLUOROMETHYLPHENYL)-AMIDE FOR TREATING INFLAMMATORY BOWEL DISEASE” (AVENTIS PHARMACEUTICALS INC., priority 2004, published 2007).

Tests used:
[1] = amount entering the intestinal lumen after administration; assay type: in vivo; settings: following administration of teriflunomide
inflammation = settings: animal models of inflammation; cited from earlier work
[2] = tested on: immune cells and cell lines; settings: wide variety of immune cells and cell lines; cited from earlier work
multiple sclerosis = settings: in vivo; cited from earlier work
[3] = molecular target: dihydrooate dehydrogenase (Homo sapiens, UniProt Q02127); settings: enzyme essential for the synthesis of pyrimidines; cited from earlier work
Crohn's disease = settings: small number of patients with azathioprine intolerance; cited from earlier work

Chain of dihydrooate dehydrogenase (Q02127 whole entry): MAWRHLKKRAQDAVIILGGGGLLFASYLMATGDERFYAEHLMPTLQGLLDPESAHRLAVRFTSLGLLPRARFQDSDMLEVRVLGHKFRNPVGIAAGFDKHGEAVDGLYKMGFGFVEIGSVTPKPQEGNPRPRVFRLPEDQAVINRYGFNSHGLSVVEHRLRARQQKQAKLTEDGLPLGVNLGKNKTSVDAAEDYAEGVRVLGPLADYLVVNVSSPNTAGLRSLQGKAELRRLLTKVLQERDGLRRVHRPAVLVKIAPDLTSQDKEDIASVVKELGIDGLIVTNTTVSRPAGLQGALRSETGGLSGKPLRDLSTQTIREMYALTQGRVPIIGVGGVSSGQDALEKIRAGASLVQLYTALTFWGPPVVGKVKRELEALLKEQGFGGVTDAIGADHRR

Row | SMILES | amount of teriflunomide entering the intestinal lumen [1] | anti-inflammatory activity (inflammation) | antiproliferative effects [2] | efficacy in preclinical models of multiple sclerosis (multiple sclerosis) | inhibition of dihydrooate dehydrogenase [3] | treatment of Crohn's disease (Crohn's disease)
1 | C/C(O)=C(\C#N)C(=O)Nc1ccc(C(F)(F)F)cc1 [Teriflunomide, (Z)-2-cyano-3-hydroxy-but-2-enoic acid-(4′-trifluoromethylphenyl)-amide] | high amounts | anti-inflammatory activity | antiproliferative effects | demonstrated efficacy | inhibits | –
2 | Cc1oncc1C(=O)Nc1ccc(C(F)(F)F)cc1 [leflunomide, 5-methylisoxazole-4-carboxylic-(4-trifluoromethyl)-anilide] | – | – | – | – | – | successful use
